Test results as given in article PMC6100075, “Correlation between the Potency of Flavonoids on Mushroom Tyrosinase Inhibitory Activity and Melanin Synthesis in Melanocytes” (Molecules : A Journal of Synthetic Chemistry and Natural …, 2018).
Read-outs that look alike come from different tables or passages of the source.

Tests used:
[1] = biological target: mushroom tyrosinase (Agaricus bisporus, UniProt C7FF04); experiment: Mushroom tyrosinase inhibitory assay (o-diphenolase activity, L-DOPA as substrate); assay type: biochemical; conditions: for inhibition at 300 µM: read-out: Mushroom Tyrosinase Inhibition % Inhibition (at 300 μM); for inhibitory activity on mushroom tyrosinase (in words): o-diphenolase; for inhibition at 200 µM: read-out: Mushroom Tyrosinase Inhibition % Inhibition (at 200 μM);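 for all read-outs here: enzyme and test sample preincubated 10 min at 25 °C in pH 6.8 phosphate buffer, 50% DMSO vehicle as control, enzyme-free mixture as blank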
Chain of mushroom tyrosinase (G1K3P4 entry or part of it): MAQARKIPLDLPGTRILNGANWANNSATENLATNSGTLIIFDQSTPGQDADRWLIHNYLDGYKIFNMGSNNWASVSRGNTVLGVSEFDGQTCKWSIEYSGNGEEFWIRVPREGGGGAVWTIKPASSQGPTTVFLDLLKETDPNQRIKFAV
Chain of mushroom tyrosinase (C7FF04 2-392): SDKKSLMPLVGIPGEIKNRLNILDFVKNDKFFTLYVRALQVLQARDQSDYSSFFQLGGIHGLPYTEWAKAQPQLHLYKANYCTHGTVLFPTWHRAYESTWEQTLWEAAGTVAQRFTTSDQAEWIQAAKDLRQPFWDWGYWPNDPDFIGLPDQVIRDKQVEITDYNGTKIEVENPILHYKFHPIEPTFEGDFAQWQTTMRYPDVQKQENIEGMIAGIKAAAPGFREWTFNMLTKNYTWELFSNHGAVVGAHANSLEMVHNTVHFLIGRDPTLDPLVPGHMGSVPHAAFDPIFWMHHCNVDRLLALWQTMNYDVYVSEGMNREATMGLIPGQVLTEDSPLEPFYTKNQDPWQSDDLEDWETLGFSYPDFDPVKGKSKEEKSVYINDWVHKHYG

[2] = biological target: T1, murine tyrosinase (Mus musculus, UniProt P11344); experiment: Murine tyrosinase inhibitory assay (o-diphenolase activity, crude enzyme from B16-F10 melanoma cells); assay type: biochemical;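 note: crude tyrosinase taken from lysed, dialyzed B16-F10 cell extract, with the inhibition reaction incubated for 2 h at 37 °C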
T1 construct: The cells were lysed by vortex and incubated at 4 °C for 1 h to solubilize the tyrosinase enzyme; endogenous in cells; host or cells: B16-F10 melanoma cells (Triton X-100 lysate, dialyzed)
T1 sequence (P11344 19-533): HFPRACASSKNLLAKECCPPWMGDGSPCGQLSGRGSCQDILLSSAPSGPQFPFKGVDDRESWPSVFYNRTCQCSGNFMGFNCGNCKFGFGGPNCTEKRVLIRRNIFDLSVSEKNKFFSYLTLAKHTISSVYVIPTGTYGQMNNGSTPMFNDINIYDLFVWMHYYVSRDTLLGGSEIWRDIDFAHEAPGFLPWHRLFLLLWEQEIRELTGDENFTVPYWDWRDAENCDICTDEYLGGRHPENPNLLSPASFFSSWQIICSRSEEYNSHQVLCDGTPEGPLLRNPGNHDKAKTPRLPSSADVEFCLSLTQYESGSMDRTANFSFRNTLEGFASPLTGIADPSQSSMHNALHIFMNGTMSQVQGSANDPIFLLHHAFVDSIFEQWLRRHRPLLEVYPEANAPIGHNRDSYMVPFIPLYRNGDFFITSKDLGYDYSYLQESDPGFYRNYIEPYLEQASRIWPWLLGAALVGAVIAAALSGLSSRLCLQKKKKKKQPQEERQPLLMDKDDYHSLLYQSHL

[3] = system: B16-F10 melanoma cells; experiment: Total melanin content assay; assay type: cell-based, Mus musculus (mouse); conditions: for activity at 15 µM / activity at 30 µM: read-out: % Melanin Content
Protocol: Mus musculus (mouse) melanoma cell line, B16-F10 (ATCC® Number: CRL-6475™, Manassas, VA, USA), was cultured in complete Dulbecco′s Modified Eagle′s Medium (DMEM, phenol red-free medium) containing 10% fetal bovine serum, 25 mM glucose, 4 mM L-glutamine, 1 mM sodium pyruvate, 10 μg/mL penicillin, and 10 μg/mL streptomycin, at 37 °C, with 5% carbon dioxide (CO2) in a humidified atmosphere.
The total melanin content, produced both extracellularly and intracellularly, was determined as follows: B16-F10 cells were seeded onto a 24-well plate at a concentration of 50,000 cells/0.5 mL/well and were incubated for 24 h, followed by treatment with either the test compounds or the control (0.5% DMSO), and then incubated for 72 h. For extraction, the total produced melanin and 0.5 mL of 2 N NaOH containing 20% DMSO were added directly to the cell culture medium, mixed by pipetting and then incubated at room temperature for 1 h. The lysed cell extract was centrifuged at 13,000× g for 5 min. Finally, the supernatant was transferred to a 96-well plate and the relative melanin content was detected at 405 nm using a micro plate reader. Kojic acid and oxyresveratrol were used as positive controls.

[4] = Cell viability assay (PrestoBlue resazurin); assay type: cell-based, Mus musculus (mouse); conditions: mouse, 72 h, relative to control, read-out: % Cell Viability;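 note: mouse B16-F10 melanoma cells exposed to test samples for 72 h, with viability read as fluorescence of resorufin formed when living cells reduce PrestoBlue resazurin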
[5] = 200 μM, L-DOPA substrate, read-out: Murine Tyrosinase Inhibition, % (at 200 μM), symbol
[6] = Mus musculus, B16-F10, 15 μM, 72 h, relative to control
[7] = Mus musculus, B16-F10, 30 μM, 72 h, relative to control
[8] = 200 μM, L-DOPA substrate, read-out: Murine Tyrosinase Inhibition, % (at 200 μM)

| SMILES | inhibition at 300 µM ([1]; L-DOPA substrate) | inhibitory activity on mushroom tyrosinase (in words) ([1]; L-DOPA substrate) | inhibition at 200 µM [2, 5] | activity at 15 µM [3, 6] | activity at 30 µM [3, 7] | viability at 72 h, 15 µM ([4]; B16-F10 melanoma cells) | viability at 72 h, 30 µM ([4]; B16-F10 melanoma cells) | further results |
| --- | --- | --- | --- | --- | --- | --- | --- | --- |
| COc1ccc(-c2coc3cc(O)ccc3c2=O)cc1 [Compound 1, Formononetin] | 10% | did not show inhibitory activity | < 0% | 134 ± 2.7% | 155 ± 15.4% | 96 ± 3.3% | 92.8 ± 9.4% |  |
| COc1ccc(-c2coc3cc(O)cc(O)c3c2=O)cc1 [Compound 3, Biochanin A] |  | did not show inhibitory activity | < 0% | 165 ± 5.9% | 168 ± 5.1% | 103 ± 4.5% | 102 ± 4.8% | inhibition at 200 µM ([1]; 200 μM, L-DOPA substrate): 9.2 ± 0.4% |
| COc1cc(-c2coc3cc(O)cc(O)c3c2=O)ccc1O [Compound 6, 3′-O-Methylorobol] |  | did not show inhibitory activity | < 0% | 170 ± 10.5% | 216 ± 15.7% | 107 ± 6.2% | 102 ± 2.7% | inhibition at 200 µM ([1]; 200 μM, L-DOPA substrate): 14.3 ± 1.1% |
| COc1ccc(-c2coc3cc(O)cc(O)c3c2=O)c(OC)c1O [Compound 7, Khrinone C] | 2% | did not show inhibitory activity | < 0% | 107.6 ± 0.8% | 154 ± 9.9% | 93.3 ± 2% | 93.4 ± 2% |  |
| COc1c(O)cc2occ(-c3ccc(O)cc3)c(=O)c2c1O [Compound 8, Tectorigenin] |  |  |  | 128 ± 2.8% | 152 ± 4.7% | 130 ± 3.4% | 119 ± 1.3% | behaviour as substrate of mushroom tyrosinase (in words) ([1]; pre-incubation with enzyme in absence of L-DOPA, coloured product at 475 nm): chromogenic substrate analogs; inhibition at 200 µM [2, 8]: 10.2 ± 2.9% |
| COc1cc(O)c2c(=O)c(-c3ccc(O)cc3O)coc2c1 [Compound 9, Cajanin] |  |  |  |  |  |  |  | inhibition at 200 µM [1]: 65 ± 1.6%; inhibition at 200 µM ([2]; read-out: Murine Tyrosinase Inhibition, % (at 200 μM)): 9.2 ± 1.5%; effect on melanin content (in words, Figure 1) ([3]; 30 μM): inhibitory effect of melanogenesis; activity at 15 µM ([3]; Mus musculus, B16-F10, 72 h): 65.8 ± 7.5%; activity at 30 µM ([3]; Mus musculus, B16-F10, 72 h): 61.6 ± 8.9%; inhibition at 15 µM ([3]; Mus musculus, B16-F10, read-out: inhibition of melanogenesis): 34%; viability at 72 h, 15 µM [4]: 102 ± 6.6%; viability at 72 h, 30 µM [4]: 107 ± 3.3% |
| COc1ccc([C@@H]2COc3cc(O)ccc3C2=O)cc1O [Compound 10, (3R)-7,3′-Dihydroxy-4′-methoxy-isoflavanone] |  |  | < 0% | 95.1 ± 3% | 95.2 ± 2.7% | 94.9 ± 3.9% | 96.5 ± 3.9% | inhibition at 200 µM [1]: 52.1 ± 0.4% |
| COc1cc2c(cc1C1COc3cc(O)ccc3C1=O)OCO2 (stereo not drawn) [Compound 11, Onogenin] | 0% |  | < 0% | 134 ± 4.6% | 170 ± 15.4% | 100 ± 5% | 92 ± 2% |  |
| COc1cc(OC)c(C2COc3cc(O)ccc3C2=O)cc1O (stereo not drawn) [Compound 12, Dalparvin] |  |  | < 0% | 134 ± 9.7% | 200 ± 12.1% | 117 ± 8.9% | 99.7 ± 6.7% | inhibition at 200 µM ([1]; 200 μM, L-DOPA substrate): 31.6 ± 0.5% |
| COc1ccc(C2COc3cc(O)ccc3C2=O)c(O)c1OC (stereo not drawn) [Compound 13, Dalparvin B] |  |  |  | 102 ± 2.7% | 99.1 ± 2.3% | 82.3 ± 5.4% | 74.1 ± 6.4% | inhibition at 500 µM ([1]; 500 μM, L-DOPA substrate): 4%; inhibition at 200 µM [2, 8]: 9.8 ± 2.8% |
| COc1ccc(C2COc3cc(O)ccc3C2=O)c(OC)c1OC [Compound 15, (3R,S)-3′-O-Methylviolanone] | 0% |  | < 0% | 143 ± 8.4% | 157 ± 11.5% | 74.2 ± 7.8% | 72.9 ± 6.2% |  |
